Assays:
BTK [1] = biological target: BTK (Homo sapiens, UniProt Q06187); assay: BTK degradation (Total BTK HTRF) in Rec-1 cells (Mantle Cell Lymphoma model); assay type: cell-based; set-up: endogenous in cells; host or cells: TMD8, Mino, Rec-1; conditions: treatment time 4 h
Experimental: BTK levels were determined using Cisbio Total-BTK HTRF (Homologous Time-Resolved Fluorescence) kit (63ADK064PEG) according to the manufacturer's protocol. Briefly, cells were incubated in 1× supplied lysis buffer for 30 minutes. In an opaque white low volume 96-well plate (Cisbio, 66PL96005), cell lysate was combined with two different specific BTK antibodies, one conjugated with Eu^3+-Cryptate FRET donor and one conjugated with d2 FRET acceptor. Assay controls include wells containing cell lysate with only the Eu^3+-Cryptate FRET donor antibody and wells containing both HTRF antibodies and lysis buffer without cells or control lysate provided by Cisbio. HTRF ratio was calculated as (acceptor signal at 665 nm/donor signal at 620 nm)×10^4. Background HTRF levels were determined from the control well containing the donor, but no acceptor, antibody. Background HTRF levels were subtracted from all samples. Readouts were reported as HTRF levels relative to HTRF levels of DMSO-treated cells. Four-parameter non-linear regressions were performed in GraphPad Prism 7.02 to obtain DC50 values.
This example evaluates the potency of CTMs in a model of Mantle Cell Lymphoma (MCL). To evaluate potential therapeutic indications, BTK CTMs were assayed in models of Mantle Cell Lymphoma as with the TMD8 cells (ABC-DLBCL) above. Tested CTMs had similar potencies for BTK degradation in the MCL cell lines (Mino and Rec-1) and TMD8 cells.

BTK [2] = biological target: T1, BTK (Mus musculus, UniProt P35991); assay: Mouse DRF PD, BTK remaining in B cells; assay type: in vivo; conditions: blood, 24 h after previous dose
T1 construct: from tissue; host or cells: mouse blood B cells / splenocytes (CD-1 or BALB/c)
Experimental: A method of determining the pharmacodynamic profile of BTK degraders was performed by dosing either CD-1 or BALB/c mice with CTM. The CTM was prepared in a suitable formulation and was administered via oral gavage (PO) at a suitable dose level and frequency as informed by prior pharmacokinetic and tolerability studies. Following administration of CTM, BTK levels in blood or splenocytes are measured using flow cytometry or HTRF. For assessment of BTK levels via flow cytometry, either whole blood or splenocytes were first treated with ACK RBC lysis buffer to facilitate lysing of red blood cells. Remaining cells were then stained with fluorophore-conjugated antibodies against CD45, TCR beta and CD45R (B220). Cell pellets were washed with 1×PBS, fixed, and permeabilized for twenty-four hours with Foxp3/Transcription Factor Fixation/Permeabilization Kit. Cells were then stained intracellularly with unconjugated BTK antibody and detected with a fluorophore-conjugated secondary antibody. Stained cells were run on an Attune N×T Acoustic Focusing Flow Cytometer (Thermo-Fisher A29004), and data was analyzed using FlowJo (v10.5.3) and GraphPad Prism (v7.00) software. Lymphocytes were gated for B cells defined as CD45+ TCR beta−B220+ and T cells as CD45+ TCR beta+B220−. The BTK geometric mean fluorescence intensity (MFI) was calculated for B and T cells. Percent BTK degradation for each compound-treated sample was calculated using the equation described below: % Degradation=100*(Treated sample B cell BTK MFI-treated sample T cell BTK MFI)/Vehicle B cell BTK MFI-Vehicle T cell BTK MFI)
This example evaluates potency and tolerability of BTK CTMs following multiple, consecutive days of dosing and evaluates potency of compounds for BTK degradation.
The data in the table below is from a study in which animals were dosed daily with the designated oral dose. Analysis for BTK levels was performed twenty-four hours following the previous dose.

TMD8 cells = assay: Cell viability assay (CellTiter-Glo), TMD8 cells; conditions: for EC50: Homo sapiens, TMD8, 72 h; for EMAX (% viable cells): TMD8 cells, treatment time 72 h
Experimental: Cell viability was determined using CellTiter-Glo 2.0 Luminescent Cell Viability Assay (Promega, G9242), which quantitates the amount of ATP present as a proxy for the number of viable cells in culture. Cells were plated with densities between 2000-4000 cells per well in 96-well plates. […] CellTiter-Glo reagent was added to cells at a dilution of 1:20, and the plate was incubated ten minutes at room temperature prior to reading the luminescence signal using an EnVision plate reader. Controls included cells treated with DMSO and wells that contained no cells, only media. Background luminescence signal was determined by control wells containing no cells, only media, and was then subtracted from all sample wells. Luminescence values were then normalized to DMSO-treated wells and reported at proportion viable cells.
Here, the ability of CTMs to affect viability in BTK-dependent cell lines was assessed.

Mino cells = assay: Cell viability assay (CellTiter-Glo), Mino cells; assay type: cell-based; conditions: for EC50: Homo sapiens; for EC50 / EMAX (% viable cells): Mino cells, treatment time 72 h; for potency on cell viability compared with compound 130: MCL cell lines (Mino and Rec-1)
From the text: This example evaluates effects of CTM-mediated degradation on cell viability. […] Mino and Rec-1 are models of Mantle Cell Lymphoma, which is sensitive to IMiDs.

TEC kinase = biological target: T2, TEC kinase (Homo sapiens, UniProt P42680); assay: TEC kinase degradation in K562 cells (western blot); assay type: cell-based; conditions: FIGS. 13A-13D; for effects on TEC kinase levels: four hours, 0.026-2000 nM, western blot
T2 construct: endogenous in cells; host or cells: K562
T2 sequence (P42680 1-631): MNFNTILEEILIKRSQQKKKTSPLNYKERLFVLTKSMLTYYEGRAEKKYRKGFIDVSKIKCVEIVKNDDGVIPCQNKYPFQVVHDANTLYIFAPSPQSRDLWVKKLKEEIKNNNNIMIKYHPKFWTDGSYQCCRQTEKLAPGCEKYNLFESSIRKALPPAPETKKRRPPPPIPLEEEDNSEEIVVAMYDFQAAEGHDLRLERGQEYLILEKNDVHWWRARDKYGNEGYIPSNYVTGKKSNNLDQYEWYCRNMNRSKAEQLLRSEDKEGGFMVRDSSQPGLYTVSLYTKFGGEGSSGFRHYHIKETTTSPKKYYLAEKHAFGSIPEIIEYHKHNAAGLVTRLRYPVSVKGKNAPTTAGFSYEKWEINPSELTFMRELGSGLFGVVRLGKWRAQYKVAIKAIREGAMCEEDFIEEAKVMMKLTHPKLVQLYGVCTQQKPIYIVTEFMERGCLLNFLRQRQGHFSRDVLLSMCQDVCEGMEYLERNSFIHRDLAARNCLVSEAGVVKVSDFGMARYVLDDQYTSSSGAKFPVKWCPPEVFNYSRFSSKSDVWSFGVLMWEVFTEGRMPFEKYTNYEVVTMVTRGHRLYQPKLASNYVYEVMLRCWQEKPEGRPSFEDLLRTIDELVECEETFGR
Experimental: To determine effects of BTK CTMs on TEC levels in cells, K562 cells were treated for four hours with CTMs at concentrations between 0.026-2000 nM. TEC levels in cell lysate was assessed by western blot.

BTK C481S = BTK C481S (Homo sapiens, UniProt Q06187, C481S); assay: BTK degradation (Total BTK HTRF) in TMD8 cells expressing BTK-C481S; assay type: cell-based; set-up: endogenous in cells; host or cells: TMD8 BTK-C481S (clone2C3), Cas9 RNP knock-in; conditions: TMD8 BTK-C481S (clone2C3) cells, treatment time 4 h
How it was run: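 DC50 values come from four-parameter regression of background-subtracted HTRF ratios (665/620 nm) normalized to DMSO controls. Total BTK was quantified in lysates of BTK-C481S-expressing TMD8 cells exposed to compound for four hours, using paired donor/acceptor anti-BTK antibodies.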

[3] = 30 mg/kg PO daily, 1 day of dosing
[4] = 30 mg/kg PO daily, 14 days of dosing
[5] = 100 mg/kg PO daily, 1 day of dosing
[6] = 100 mg/kg PO daily, 14 days of dosing
[7] = 300 mg/kg PO daily, 1 day of dosing
[8] = 300 mg/kg PO daily, 14 days of dosing

Compound | DC50 (BTK [1]) | % BTK Remaining in B cells (BTK [2]; [3]) | % BTK Remaining in B cells (BTK [2]; [4]) | % BTK Remaining in B cells (BTK [2]; [5]) | % BTK Remaining in B cells (BTK [2]; [6]) | % BTK Remaining in B cells (BTK [2]; [7]) | % BTK Remaining in B cells (BTK [2]; [8]) | EC50 (TMD8 cells) | EMAX (% viable cells) (TMD8 cells) | EC50 (Mino cells) | EMAX (% viable cells) (Mino cells) | degradation of BTK compared with TEC (TEC kinase) | effects on TEC kinase levels (TEC kinase) | DC50 (BTK C481S) | potency on cell viability compared with compound 130 (Mino cells)
CN1CCN([C@H]2CCCN(c3cnc(C(N)=O)c(Nc4ccc(C5CCN(CC6CCN(c7ccc(C(=O)NC8CCC(=O)NC8=O)nc7)CC6)CC5)cc4)n3)C2)C1=O (stereo partly shown) [Compound 130] | 2 nM | 11% | 6% | 3% | 2% | 2% | <1% | 1.5 nM | 27% | 176 nM | 78% | more potent degradation of BTK than TEC | mild to moderate effects | 1.8 nM | –
NC(=O)c1ncc(N2CCCCC2)nc1Nc1ccc(C2CCN(C[C@@H]3CCN(c4ccc5c(c4)C(=O)N(C4CCC(=O)NC4=O)C5=O)C3)CC2)cc1 (stereo partly shown) [Compound 149] | 4 nM | 11% | 8% | 10% | 5% | 6% | 2% | 9.62 nM | 7% | 3.4 nM | 50% | more potent degradation of BTK than TEC | mild to moderate effects | 14.4 nM | more potent
CN1CCN([C@@H]2CCCN(c3cnc(C(N)=O)c(Nc4ccc(C5CCN(C[C@H]6CCN(c7ccc8c(c7)C(=O)N(C7CCC(=O)NC7=O)C8=O)C6)CC5)cc4)n3)C2)C1=O (stereo partly shown) [Compound 44] | 1 nM | 16% | 16% | 10% | 11% | 8% | 10% | 3.73 nM | 15% | 11.7 nM | 61% | more potent degradation of BTK than TEC | mild to moderate effects | 1.8 nM | more potent
CN1CCN([C@@H]2CCCN(c3cnc(C(N)=O)c(Nc4ccc(C5CCN(CC6CCN(c7ccc8c(=O)n(C9CCC(=O)NC9=O)ccc8c7)CC6)CC5)cc4)n3)C2)C1=O (stereo partly shown) [Compound 72] | – | – | – | – | – | – | – | 0.429 nM | 26% | – | – | more potent degradation of BTK than TEC | mild to moderate effects | 2 nM | –
CN1CCN([C@@H]2CCCN(c3cnc(C(N)=O)c(Nc4ccc(C5CCN(CC6CCN(c7ccc(-c8nn(C9CCC(=O)NC9=O)c(=O)n8C)cc7)CC6)CC5)cc4)n3)C2)C1=O (stereo partly shown) [Compound 121] | – | – | – | – | – | – | – | 1.54 nM | 28% | – | – | – | – | 4.1 nM | –
